What was measured:
Type in all cases: in vivo
[1] = tested on: Mexican bean beetle (Epilachna varivestis, Muls.); test: Mexican Bean Beetle Leaf Spray Test; set-up: key: A: excellent control; B: partial control; C: no control; details: 500 ppm, three days
Description: (§1) Suspensions of the test compounds were prepared by dissolving one gram of compound in 50 milliliters of acetone in which had been dissolved 0.1 gram (10 percent of the weight of compound) of an alkylphenoxy polyethoxyethanol surfactant, as an emulsifying or dispersing agent. The resulting solution was mixed into 150 milliliters of water to give roughly 200 milliliters of a suspension containing the compound in finely divided form. The thus-prepared stock suspension contained 0.5 percent by weight of compound. The test concentrations in parts per million by weight employed in the tests described hereinbelow were obtained by appropriate dilutions of the stock suspension with water. The test procedures were as follows:
Fourth instar larvae of the Mexican bean beetle (Epilachna varivestis, Muls.), reared on Tendergreen bean plants at a temperature of 80±5° F. and 50±5 percent relative humidity, were the test insects.
The test compounds were formulated by diluting the stock suspension with water to give a suspension containing 500 parts of test compound per million parts of final formulation. Potted Tendergreen bean plants of standard height and age were placed on a revolving turntable and sprayed with 100-110 milliliters of test compound formulation by use of a DeVilbiss spray gun set at 10 psig air pressure. The application, which lasted 25 seconds, was sufficient to wet plants to run-off. As a control, 100-110 milliliters of a water-acetone-emulsifier solution containing no test compound were also sprayed on infested plants. When dry, the paired leaves were separated and each was placed in a 9 centimeter Petri dish lined with moistened filter paper. Five randomly selected larvae were introduced into each dish, and the dishes were closed. The closed dishes were labeled and held at a temperature of 80±5° F. for three days. Although the larvae could easily consume the leaf within 24 to 48 hours, no more food was added. Larvae which were unable to move the length of the body, even upon stimulation, were considered dead.
(§2) In these tests the pesticidal activity of the compounds against aphid, mite, Southern Armyworm, Bean Beetle and house fly was rated as follows: […]

[2] = tested on: bean aphid (Aphis fabae Scop.); test: Bean Aphid Foliage Spray Test; set-up: key: A: excellent control; B: partial control; C: no control; details: 500 ppm, 24 hour holding period
Description: as §1
Adults and nymphal stages of the bean aphid (Aphis fabae Scop.) reared on potted dwarf nasturtium plants at 65°-70° F. and 50-70 percent relative humidity, constituted the test insects. For testing purposes, the number of aphids per pot was standardized to 100-150 by trimming plants containing excess aphids.
The test compounds were formulated by diluting the stock suspension with water to give a suspension containing 500 parts of test compound per million parts of final formulation.
The potted plants (one pot per compound tested) infested with 100-150 aphids, were placed on a revolving turntable and sprayed with 100-110 milliliters of test compound formulation by use of a DeVilbiss spray gun set at 40 psig. air pressure. This application, which tested 25 seconds, was sufficient to wet the plants to run-off. As a control, 100-110 milliliters of a water-acetone-emulsifier solution containing no test compound were also sprayed on infested plants. After spraying, the pots were placed on their sides on a sheet of white standard mimeograph paper which had been previously ruled to facilitate counting. Temperature and humidity in the test room during the 24 hour holding period were 65°-70° F. and 50-70 percent, respectively. Aphids which fell onto the paper and were unable to remain standing after being uprighted were considered dead. Aphids remaining on the plants were observed closely for movement and those which were unable to move the length of the body upon stimulation by prodding were considered dead. Percent mortality was recorded for various concentration levels.
as §2

[3] = tested on: root-knot nematode (Meloidogyne incognita var. acrita); test: Nematode Test; set-up: key: 1: severe galling; equal to untreated control; 2: moderate galling; 3: light galling; 4: very light galling; 5: no galling; details: 10 ml of 500 ppm formulation per jar (approx. 180 cc soil), cucumber indicator crop, approx. three weeks
Description: as §1
Infective migratory larvae of the root-knot nematode, (Meloidogyne incognita var. acrita) were reared in the greenhouse on roots of Rutgers variety tomato plant. Infected tomato plants were removed from the culture and the roots were chopped very finely. A small amount of inoculum from the roots was added to pint Mason jars containing approximately 180 cc of soil. The jars containing the inoculum and soil were capped and incubated for one week at room temperature. During this period eggs of the nematode hatched and the larvae forms migrated into the soil.
The test compounds were formulated by diluting the stock suspension with water to give a suspension containing 500 parts of test compound per million parts of final formulation. 10 milliliters of the test formulation was added to each of two jars for each dosage treated. As a control 10 milliliters of a water-acetone-emulsifier solution containing no test compound was also added to jars containing nematode larvae. The jars were capped and the contents thoroughly mixed on a kale mill for five minutes. The jars remained capped at room temperature for a period of 48 hours and the contents were then transferred to 3 inch pots. Subsequently, the pots were seeded to cucumber as an indicator crop and placed in the green house where they were cared for in the normal fashion for growing potted cucumber for approximately three weeks. These cucumber plants were then removed from the pots, the soil washed from the roots and the amount of galling visually rated.
The nematocidal toxicity has the following ratings;

[4] = tested on: house flies (Musca domestica, L.); test: Fly Bait Test; set-up: key: A: excellent control; B: partial control; C: no control; details: 500 ppm in sugar solution, twenty four hours
Description: as §1
Four to six day old adult house flies (Musca domestica, L.) reared according to the specifications of the Chemical Specialities Manufacturing Association (Blue Book, McNair-Dorland Co., N.Y. 1954; pages 243-244, 261) under controlled conditions of 80±5° F. and 50±5 percent relative humidity, were the test insects. The flies were immobilized by anesthetizing with carbon dioxide and twenty five immobilized individuals,males and females, were transferred to a cage consisting of a standard food strainer about five inches in diameter which was inverted over a wrapping-paper-covered surface. The test compounds were formulated by diluting the stock suspension with a 10 percent (by weight) sugar solution to give a suspension containing 500 parts of test compound per million parts of final formulation, by weight. Ten milliliters of the test formulation were added to a souffle cup containing a one-inch square of an absorbent cotton pad. This bait cup was introduced and centered on the blotting paper under the food strainer prior to admitting the anesthetized flies. The caged flies were allowed to feed on the bait for twenty four hours, at a temperature of 80±5° F. and the relative humidity of 50±5 percent.
as §2

[5] = tested on: two-spotted mite (Tetranychus urticae Koch); test: Mite Foliage Spray Test; set-up: key: A: excellent control; B: partial control; C: no control; details: 500 ppm, six days
Description: as §1
Adults and nymphal stages of the two-spotted mite (Tetranychus urticae Koch), reared on Tendergreen bean plants at 80±5 percent relative humidity, were the test organisms. Infested leaves from a stock culture were placed on the primary leaves of two bean plants six to eight inches in height, growing in a two-and-a-half inch clay pot. 150-200 Mites, a sufficient number for testing, transferred from the excised leaves to the fresh plants in a period of twenty four hours. Following the twenty four hour transfer period, the excised leaves were removed from the infested plants. The test compounds were formulated by diluting the stock suspension with water to give a suspension containing 500 parts of test compound per million parts of final formulation. The potted plants (one pot per compound) were placed on a revolving turntable and sprayed with 100-110 milliliters of test compound formulation by use of a DeVilbiss spray gun set at 40 psig. air pressure. This application, which lasted 25 seconds, was sufficient to wet the plants to run-off. As a control, 100-110 milliliters of a water solution containing acetone and emulsifier in the same concentrations as the test compound formulation, but containing no test compound, were also sprayed on infested plants. The sprayed plants were held at 80±5 percent relative humidity for six days, after which a mortality count of motile forms was made. Microscopic examination for motile forms was made on the leaves of the test plants. Any individual which was capable of locomotion upon prodding was considered living.
as §2

[6] = tested on: southern armyworm (Prodenia eridania, (Cram.)); test: Southern Armyworm Leaf Spray Test; set-up: key: A: excellent control; B: partial control; C: no control; details: 500 ppm, three days
Description: as §1
Larvae of the southern armyworm (Prodenia eridania, (Cram.)), reared on Tendergreen bean plants at a temperature of 80±5° F. and a relative humidity of 50±5 percent, constituted the test insects.
The test compounds were formulated by diluting the stock suspension with water to give a suspension containing 500 parts of test compound per million parts of final formulation. Potted Tendergreen bean plants of standard height and age were placed on a revolving turntable and sprayed with 100-110 milliliters of test compound formulation by use of a DeVilbiss spray gun set at 10 psig air pressure. This application, which tested 25 seconds, was sufficient to wet plants to run-off. As a control, 100-110 milliliters of a water-acetone-emulsifier solution containing no test compound were also sprayed on infested plants. When dry, the paired leaves were separated and each one was placed in a 9 centimeter Petri dish lined with moistened filter paper. Five randomly selected larvae were introduced into each dish and the dishes were closed. The closed dishes were labeled and held at 80°-85° F. for three days. Although the larvae could easily consume the whole leaf within twenty-four hours, no more food was added. Larvae which were unable to move the length of the body, even upon stimulation by prodding, were considered dead. Percent mortality was recorded for various concentration levels.
as §2

SMILES | Mexican Bean Beetle control rating [1] | Bean Aphid control rating [2] | Root-Knot Nematode galling rating [3] | House-Fly control rating [4] | 2-Spotted Mite control rating [5] | Southern Armyworm control rating [6]
CC(=NOC(=O)N(C)SSN(C)C(=O)ON=C(C)SC(C)C)SC(C)C [N,N'-Bis-[1-Isopropylthioacetaldehyde O-(N-methylcarbamoyl)oxime]disulfide] | A | A | 4 | A | A | A
CN=C1SC(=NOC(=O)N(C)SSN(C)C(=O)ON=C2SC(=NC)SC2(C)C)C(C)(C)S1 [N,N'--Bis-[2-Methylimino-4,4-dimethyl-5-(O--(N--methyl-carbamoyl)oximino-1,3-dithiolane]disulfide] | A | A | 4 | A | B | A
CN(SSN(C)C(=O)ON=C1SCCS1)C(=O)ON=C1SCCS1 [N,N'-bis-[2-(O-(N-Methylcarbamoyl)oximino)-1,3-dithiolane]disulfide] | A | A | 5 | A | C | A
CC(C)N1C(=O)C(C)(C)SC1=NOC(=O)N(C)SSN(C)C(=O)ON=C1SC(C)(C)C(=O)N1C(C)C [N,N'--Bis-[3-Isopropyl-5,5-dimethyl-2-(O--(N--methylcarbamoyl)oximino)-1,3-thiazolidin-4-one] disulfide] | A | A | – | C | C | B
CN(SSN(C)C(=O)ON=CC(C)(C)S(C)(=O)=O)C(=O)ON=CC(C)(C)S(C)(=O)=O [N,N'-Bis-[2-Methylsulfonyl-2-methylpropionaldehyde O-(N-methylcarbamoyl)oxime]disulfide] | C | C | 4 | A | B | C
CSC(C)(C)C=NOC(=O)N(C)SSN(C)C(=O)ON=CC(C)(C)SC [N,N'-bis-[2-methylthio-2-methylpropionaldehyde O-(N-methylcarbamoyl)oxime]disulfide] | A | A | 5 | A | A | A
CN1CCSC(=NOC(=O)N(C)SSN(C)C(=O)ON=C2SCCN(C)C2=O)C1=O [N,N'-bis-[4-Methyl-2-(O-(N-methylcarbamoyl)oximino)tetrahydro-1,4-thiazin-3-one]disulfide] | A | A | – | A | A | A
CN(SSN(C)C(=O)ON=CC(C)(C)C#N)C(=O)ON=CC(C)(C)C#N [N,N'-bis-[2-Cyano-2-methylpropionaldehyde O-(N-methylcarbamoyl)oxime]disulfide] | A | A | 4 | A | A | A
CC1OCSC1=NOC(=O)N(C)SSN(C)C(=O)ON=C1SCOC1C (stereo not shown) [N,N'-bis-[5-Methyl-4-(O-(N-methylcarbamoyl)oximino)-1,3-oxathiolane]disulfide] | A | A | 1 | A | A | A
CC(=NOC(=O)N(C)SSN(C)C(=O)ON=C(C)[S+](C)[O-])[S+](C)[O-] (stereo not shown) [N,N'--Bis-[1-Methylsulfinylacetaldehyde O--(N--methylcarbamoyl)oxime] disulfide] | A | C | 1 | A | C | B
